Results from ChEMBL document CHEMBL5335866, “Structure-Based Optimization of Selective and Brain Penetrant CK1δ Inhibitors for the Treatment of Circadian Disruptions” (ACS Med Chem Lett, 2024).
Converted amounts (≈) assume the structure as drawn.

Assays:
[1] = target: Citron Rho-interacting kinase (Homo sapiens) (UniProt O14578); assay: Inhibition of CRIK (unknown origin) at 1 uM by radiometric assay relative to control
[2] = target: T1, TGF-beta receptor type-1 (Homo sapiens) (UniProt P36897); assay: Inhibition of TGFBR1 (unknown origin) at 1 uM by radiometric assay relative to control
T1 sequence (whole entry): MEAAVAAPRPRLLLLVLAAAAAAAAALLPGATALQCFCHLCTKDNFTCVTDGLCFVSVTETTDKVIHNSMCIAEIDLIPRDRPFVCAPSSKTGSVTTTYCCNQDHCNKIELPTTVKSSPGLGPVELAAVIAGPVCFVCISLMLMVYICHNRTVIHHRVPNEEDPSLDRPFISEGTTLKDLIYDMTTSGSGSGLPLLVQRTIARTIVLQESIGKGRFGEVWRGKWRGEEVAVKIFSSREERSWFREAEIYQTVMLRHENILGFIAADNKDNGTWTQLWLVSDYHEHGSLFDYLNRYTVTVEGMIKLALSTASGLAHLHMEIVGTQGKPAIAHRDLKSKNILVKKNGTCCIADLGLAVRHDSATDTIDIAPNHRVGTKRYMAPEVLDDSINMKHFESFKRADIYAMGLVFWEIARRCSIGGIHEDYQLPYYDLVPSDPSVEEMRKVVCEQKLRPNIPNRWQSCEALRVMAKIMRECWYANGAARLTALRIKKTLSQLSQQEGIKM

[3] = target: Epithelial discoidin domain-containing receptor 1 (Homo sapiens) (UniProt Q08345); assay: Inhibition of DDR1 (unknown origin) at 1 uM by radiometric assay relative to control
Epithelial discoidin domain-containing receptor 1 (Homo sapiens), sequence (Q08345 whole entry, the tested form may be a part): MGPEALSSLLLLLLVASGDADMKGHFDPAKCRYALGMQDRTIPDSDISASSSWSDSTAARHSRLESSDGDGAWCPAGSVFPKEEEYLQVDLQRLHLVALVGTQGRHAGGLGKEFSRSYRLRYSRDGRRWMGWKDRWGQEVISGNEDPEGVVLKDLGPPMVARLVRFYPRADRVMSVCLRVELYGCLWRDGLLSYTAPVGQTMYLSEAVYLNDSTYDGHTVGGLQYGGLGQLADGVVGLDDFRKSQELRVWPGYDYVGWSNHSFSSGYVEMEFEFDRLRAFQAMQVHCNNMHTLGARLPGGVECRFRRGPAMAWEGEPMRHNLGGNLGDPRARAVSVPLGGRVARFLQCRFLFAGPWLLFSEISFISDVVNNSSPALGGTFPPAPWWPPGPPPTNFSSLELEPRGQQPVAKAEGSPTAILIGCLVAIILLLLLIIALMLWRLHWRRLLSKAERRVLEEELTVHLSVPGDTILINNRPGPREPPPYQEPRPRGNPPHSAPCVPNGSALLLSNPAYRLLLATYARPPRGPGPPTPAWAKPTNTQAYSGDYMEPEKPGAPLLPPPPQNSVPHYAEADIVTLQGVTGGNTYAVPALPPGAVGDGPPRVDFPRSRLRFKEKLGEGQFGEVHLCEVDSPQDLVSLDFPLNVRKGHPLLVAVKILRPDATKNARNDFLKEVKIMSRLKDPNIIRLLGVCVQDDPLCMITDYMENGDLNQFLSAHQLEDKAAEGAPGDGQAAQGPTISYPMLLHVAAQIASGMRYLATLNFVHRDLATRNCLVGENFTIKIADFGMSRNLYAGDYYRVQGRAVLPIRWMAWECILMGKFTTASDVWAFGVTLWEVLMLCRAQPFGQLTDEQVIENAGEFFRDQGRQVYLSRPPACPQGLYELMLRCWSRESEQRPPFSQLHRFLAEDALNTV

[4] = Intrinsic clearance in rat liver microsomes at 1 uM preincubated for 5 mins followed by NADPH addition measured for 60 mins by LC-MS/MS analysis; format: ADME, Microsome; details: time 65 min, read-out: CLH
[5] = Intrinsic clearance in human liver microsomes at 1 uM preincubated for 5 mins followed by NADPH addition measured for 60 mins by LC-MS/MS analysis; format: ADME, Microsome; details: time 65 min, read-out: CLH
[6] = target: T2, Serine/threonine-protein kinase NLK (Homo sapiens) (UniProt Q9UBE8); assay: Inhibition of NLK (unknown origin) at 1 uM by radiometric assay relative to control
T2 sequence (whole entry): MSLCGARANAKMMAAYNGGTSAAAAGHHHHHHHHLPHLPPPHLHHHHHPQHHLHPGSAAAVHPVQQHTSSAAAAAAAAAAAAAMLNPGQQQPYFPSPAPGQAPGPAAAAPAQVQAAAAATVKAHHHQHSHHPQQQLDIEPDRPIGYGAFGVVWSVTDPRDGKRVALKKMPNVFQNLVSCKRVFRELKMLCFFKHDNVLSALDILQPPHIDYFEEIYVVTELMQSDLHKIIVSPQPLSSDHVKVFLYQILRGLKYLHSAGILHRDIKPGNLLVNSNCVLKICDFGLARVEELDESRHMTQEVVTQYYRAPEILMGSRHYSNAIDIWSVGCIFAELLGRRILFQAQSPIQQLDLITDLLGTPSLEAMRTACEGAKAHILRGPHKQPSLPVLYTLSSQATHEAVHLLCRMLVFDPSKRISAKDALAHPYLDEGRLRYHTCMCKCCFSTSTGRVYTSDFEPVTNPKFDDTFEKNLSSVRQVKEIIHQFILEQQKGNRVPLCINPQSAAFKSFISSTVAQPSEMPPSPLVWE

[7] = target: TRAF2 and NCK-interacting protein kinase (Homo sapiens, UniProt Q9UKE5); assay: Inhibition of TNIK (unknown origin) at 1 uM by radiometric assay relative to control
TRAF2 and NCK-interacting protein kinase, sequence (Q9UKE5 whole entry, looked up): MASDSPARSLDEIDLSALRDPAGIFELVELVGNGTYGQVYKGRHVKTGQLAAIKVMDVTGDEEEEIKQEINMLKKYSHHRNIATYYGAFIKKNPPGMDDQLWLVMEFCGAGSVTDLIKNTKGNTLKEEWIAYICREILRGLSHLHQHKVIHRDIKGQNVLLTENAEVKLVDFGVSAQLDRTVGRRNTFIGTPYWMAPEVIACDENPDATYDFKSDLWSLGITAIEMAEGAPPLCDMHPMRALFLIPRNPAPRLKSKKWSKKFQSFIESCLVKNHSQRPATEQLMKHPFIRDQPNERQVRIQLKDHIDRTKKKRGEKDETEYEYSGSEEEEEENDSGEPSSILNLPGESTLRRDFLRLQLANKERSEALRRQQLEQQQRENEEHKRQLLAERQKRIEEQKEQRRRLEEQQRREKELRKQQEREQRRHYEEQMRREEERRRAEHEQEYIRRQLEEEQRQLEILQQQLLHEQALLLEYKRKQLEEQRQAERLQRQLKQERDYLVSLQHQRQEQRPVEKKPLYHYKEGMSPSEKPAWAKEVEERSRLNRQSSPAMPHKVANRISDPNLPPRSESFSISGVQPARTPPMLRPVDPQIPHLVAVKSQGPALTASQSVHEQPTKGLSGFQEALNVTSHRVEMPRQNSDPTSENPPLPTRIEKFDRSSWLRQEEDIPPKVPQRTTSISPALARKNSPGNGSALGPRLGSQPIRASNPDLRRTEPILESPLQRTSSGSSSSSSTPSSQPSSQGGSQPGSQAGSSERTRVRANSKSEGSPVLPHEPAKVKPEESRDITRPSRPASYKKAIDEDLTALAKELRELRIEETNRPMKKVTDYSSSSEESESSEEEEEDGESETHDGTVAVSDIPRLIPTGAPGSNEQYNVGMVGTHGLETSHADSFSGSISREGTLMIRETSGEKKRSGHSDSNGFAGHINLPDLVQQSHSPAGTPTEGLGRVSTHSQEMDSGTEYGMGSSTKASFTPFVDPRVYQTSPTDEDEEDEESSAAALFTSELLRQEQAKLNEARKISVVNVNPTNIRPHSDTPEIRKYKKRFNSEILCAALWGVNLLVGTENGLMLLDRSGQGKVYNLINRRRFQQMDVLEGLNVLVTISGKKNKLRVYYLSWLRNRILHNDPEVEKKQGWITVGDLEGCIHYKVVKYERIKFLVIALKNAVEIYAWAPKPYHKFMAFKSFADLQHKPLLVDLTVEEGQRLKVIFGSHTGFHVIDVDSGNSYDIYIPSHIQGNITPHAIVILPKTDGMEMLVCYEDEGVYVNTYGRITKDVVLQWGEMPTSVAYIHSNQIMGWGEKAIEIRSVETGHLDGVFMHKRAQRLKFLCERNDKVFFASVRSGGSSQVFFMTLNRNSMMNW

[8] = target: Receptor-interacting serine/threonine-protein kinase 2 (Homo sapiens) (UniProt O43353); assay: Inhibition of RIPK2 (unknown origin) at 1 uM by radiometric assay relative to control
Receptor-interacting serine/threonine-protein kinase 2 (Homo sapiens), sequence (O43353 whole entry): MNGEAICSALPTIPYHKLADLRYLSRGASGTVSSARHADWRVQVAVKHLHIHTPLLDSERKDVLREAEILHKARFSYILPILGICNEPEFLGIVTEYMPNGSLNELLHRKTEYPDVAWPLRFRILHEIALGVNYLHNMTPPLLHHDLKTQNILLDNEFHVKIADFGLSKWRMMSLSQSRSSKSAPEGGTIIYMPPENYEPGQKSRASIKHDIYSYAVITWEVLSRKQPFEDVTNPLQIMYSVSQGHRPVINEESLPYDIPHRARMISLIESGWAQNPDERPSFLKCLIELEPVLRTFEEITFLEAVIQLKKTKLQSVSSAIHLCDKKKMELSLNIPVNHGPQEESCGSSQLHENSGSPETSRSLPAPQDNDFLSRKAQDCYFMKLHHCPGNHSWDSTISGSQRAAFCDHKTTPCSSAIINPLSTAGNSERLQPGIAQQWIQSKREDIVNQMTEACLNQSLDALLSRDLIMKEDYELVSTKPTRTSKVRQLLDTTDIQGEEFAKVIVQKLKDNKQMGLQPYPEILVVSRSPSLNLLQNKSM

[9] = target: Mitogen-activated protein kinase 14 (Homo sapiens, UniProt Q16539); assay: Inhibition of p38 alpha (unknown origin)
Mitogen-activated protein kinase 14, sequence (Q16539 whole entry): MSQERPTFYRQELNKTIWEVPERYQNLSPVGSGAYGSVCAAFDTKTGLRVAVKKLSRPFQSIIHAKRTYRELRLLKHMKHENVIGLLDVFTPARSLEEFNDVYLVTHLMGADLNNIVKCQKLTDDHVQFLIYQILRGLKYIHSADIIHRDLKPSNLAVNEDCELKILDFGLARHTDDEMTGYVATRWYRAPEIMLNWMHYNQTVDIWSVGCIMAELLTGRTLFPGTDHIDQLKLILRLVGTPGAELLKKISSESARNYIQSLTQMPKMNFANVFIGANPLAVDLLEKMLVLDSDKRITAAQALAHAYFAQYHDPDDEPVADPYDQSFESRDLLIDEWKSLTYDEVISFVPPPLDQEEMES

[10] = target: Mitogen-activated protein kinase kinase kinase 20 (Homo sapiens) (UniProt Q9NYL2); assay: Inhibition of ZAK (unknown origin) at 1 uM by radiometric assay relative to control
Mitogen-activated protein kinase kinase kinase 20 (Homo sapiens), sequence (Q9NYL2 2-800 limits assumed): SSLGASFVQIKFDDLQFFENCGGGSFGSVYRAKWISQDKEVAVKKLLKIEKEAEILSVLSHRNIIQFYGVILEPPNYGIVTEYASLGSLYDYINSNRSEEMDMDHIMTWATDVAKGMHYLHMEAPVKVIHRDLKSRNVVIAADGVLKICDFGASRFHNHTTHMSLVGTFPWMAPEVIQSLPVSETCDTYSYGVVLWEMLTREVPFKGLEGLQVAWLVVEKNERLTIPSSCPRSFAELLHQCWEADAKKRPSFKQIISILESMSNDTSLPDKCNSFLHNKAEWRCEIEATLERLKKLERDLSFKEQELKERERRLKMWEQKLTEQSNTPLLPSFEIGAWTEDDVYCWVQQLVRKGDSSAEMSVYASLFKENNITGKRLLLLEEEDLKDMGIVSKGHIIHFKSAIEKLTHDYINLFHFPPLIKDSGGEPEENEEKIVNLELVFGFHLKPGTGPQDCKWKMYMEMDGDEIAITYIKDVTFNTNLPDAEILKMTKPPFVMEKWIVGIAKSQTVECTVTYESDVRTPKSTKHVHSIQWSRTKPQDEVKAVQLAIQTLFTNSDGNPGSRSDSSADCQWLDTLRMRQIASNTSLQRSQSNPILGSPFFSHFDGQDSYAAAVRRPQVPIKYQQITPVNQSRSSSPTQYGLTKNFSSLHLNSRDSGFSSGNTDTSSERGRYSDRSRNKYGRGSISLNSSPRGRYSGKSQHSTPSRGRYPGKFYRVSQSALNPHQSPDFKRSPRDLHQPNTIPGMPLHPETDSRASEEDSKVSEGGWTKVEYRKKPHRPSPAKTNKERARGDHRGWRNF

[11] = target: T3, Dual specificity mitogen-activated protein kinase kinase 3 (Homo sapiens) (UniProt P46734); assay: Inhibition of MKK3 (unknown origin) at 1 uM by radiometric assay relative to control
T3 sequence (whole entry): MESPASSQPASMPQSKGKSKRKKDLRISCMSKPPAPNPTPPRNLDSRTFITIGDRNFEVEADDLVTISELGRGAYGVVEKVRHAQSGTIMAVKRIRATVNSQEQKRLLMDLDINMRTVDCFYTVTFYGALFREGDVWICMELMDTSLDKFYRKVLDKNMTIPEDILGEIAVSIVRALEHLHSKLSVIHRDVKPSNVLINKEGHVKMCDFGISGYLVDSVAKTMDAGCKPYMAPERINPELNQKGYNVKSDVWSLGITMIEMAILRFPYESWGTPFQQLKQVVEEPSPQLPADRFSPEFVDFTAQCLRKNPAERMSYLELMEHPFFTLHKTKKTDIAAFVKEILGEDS

[12] = target: T4, Casein kinase I isoform delta (Homo sapiens, UniProt P48730); assay: Displacement of kinase tracer 8 from NanoLuc-tagged CK1 delta (unknown origin) transfected in CHO cells by BRET assay; format: cell-based
T4 sequence (P48730 whole entry, canonical isoform): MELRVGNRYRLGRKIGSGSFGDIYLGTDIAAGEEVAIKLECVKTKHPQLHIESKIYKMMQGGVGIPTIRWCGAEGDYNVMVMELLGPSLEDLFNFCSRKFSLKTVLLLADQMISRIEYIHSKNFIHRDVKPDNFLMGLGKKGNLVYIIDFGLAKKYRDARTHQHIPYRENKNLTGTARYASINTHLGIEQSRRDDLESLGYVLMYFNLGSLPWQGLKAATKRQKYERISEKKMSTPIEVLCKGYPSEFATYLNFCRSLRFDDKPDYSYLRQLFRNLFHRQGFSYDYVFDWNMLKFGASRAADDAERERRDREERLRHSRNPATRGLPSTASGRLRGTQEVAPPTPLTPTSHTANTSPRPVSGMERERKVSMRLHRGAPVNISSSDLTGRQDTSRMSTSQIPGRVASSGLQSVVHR

[13] = Solubility of compound at pH 2 measured for 2 to 5 days by HPLC analysis; format: physicochemical; details: buffer, time 2-5 day
[14] = target: T4, Casein kinase I isoform delta; assay: Inhibition of N-terminal GST-tagged recombinant human CK1 delta expressed in Escherichia coli BL21 cells using PLSRTL-pS-VA-pS-LPGL as substrate measured after 60 mins in presence of ATP by ADP-Glo assay
[15] = target: Mitogen-activated protein kinase 11 (Homo sapiens, UniProt Q15759); assay: Inhibition of p38 beta (unknown origin)
Mitogen-activated protein kinase 11, sequence (Q15759 whole entry): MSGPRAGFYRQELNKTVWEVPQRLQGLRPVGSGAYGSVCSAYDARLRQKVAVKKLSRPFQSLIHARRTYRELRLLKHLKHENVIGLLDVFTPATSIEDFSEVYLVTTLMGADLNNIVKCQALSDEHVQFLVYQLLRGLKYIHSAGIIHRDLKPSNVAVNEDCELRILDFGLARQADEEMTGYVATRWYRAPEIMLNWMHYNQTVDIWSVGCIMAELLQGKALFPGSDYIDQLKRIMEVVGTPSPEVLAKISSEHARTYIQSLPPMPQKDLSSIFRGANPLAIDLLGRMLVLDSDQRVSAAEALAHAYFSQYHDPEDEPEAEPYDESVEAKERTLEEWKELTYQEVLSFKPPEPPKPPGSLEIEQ

MDR1 = assay: Efflux ratio of apparent permeability across basal to apical side over apical to basal side in MDCK cells expressing MDR1 at 5 uM incubated for 60 mins by LC/MS/MS analysis; format: ADME, cell-based, Canis lupus familiaris, MDCK1; details: dog
[16] = Solubility of compound at pH 7 measured for 2 to 5 days by HPLC analysis; format: physicochemical; details: buffer, time 2-5 day
[17] = Apparent permeability across apical to basal side in MDCK cells expressing MDR1 at 5 uM incubated for 60 mins by LC/MS/MS analysis; format: ADME, cell-based, Canis lupus familiaris, MDCK1; details: dog
[18] = Volume of distribution at steady state in Sprague-Dawley rat at 1 mg/kg, iv measured for 24 hrs by LC-MS/MS analysis; format: ADME, organism-based; details: in vivo, read-out: Vdss
[19] = AUC (infinity) in Sprague-Dawley rat at 5 mg/kg, po measured for 24 hrs by LC-MS/MS analysis; format: ADME, organism-based; design: time 24 hrs, dose 5 mg/kg, route po; details: in vivo
[20] = Half life in Sprague-Dawley rat at 5 mg/kg, po measured for 24 hrs by LC-MS/MS analysis; format: ADME, organism-based; details: in vivo
[21] = Clearance in Sprague-Dawley rat at 1 mg/kg, iv measured for 24 hrs by LC-MS/MS analysis; format: ADME, organism-based; details: in vivo
[22] = Oral bioavailability in Sprague-Dawley rat at 5 mg/kg measured for 24 hrs by LC-MS/MS analysis; format: ADME, organism-based; details: in vivo
[23] = Cmax in Sprague-Dawley rat at 5 mg/kg, po measured for 24 hrs by LC-MS/MS analysis; format: ADME, organism-based; design: dose 5 mg/kg, time 24 hrs, route po; details: in vivo

CC1(C)Cn2nc(-c3ccc(F)cn3)c(-c3ccnc4[nH]ccc34)c2CO1
inhibition [1]: 15%
inhibition [2]: 49%
inhibition [3]: 25%
microsomal CLint at 1 µM [4]: 42.9 µL/min/mg
microsomal CLint at 1 µM [5]: 15.1 µL/min/mg
inhibition [6]: 16%
inhibition [7]: 84%
inhibition [8]: 39%
IC50 [9]: 2100 nM
inhibition [10]: 20%
inhibition [11]: 40%

Cc1cnc2[nH]ccc2c1-c1cn(C)nc1-c1ccc(F)cn1
inhibition [1]: 14%
inhibition [2]: 8%
inhibition [3]: 21%
inhibition [6]: 0%
inhibition [7]: 54%
inhibition [8]: 0%
IC50 [9]: 3000 nM
inhibition [10]: 30%
inhibition [11]: 19%

Fc1ccc(-c2nn3c(c2-c2ccnc4[nH]ncc24)CCC(F)(F)C3)nc1
IC50 [12]: 300 nM

Cn1cc(-c2ccnc3[nH]ccc23)c(-c2ccc(F)cc2)n1
microsomal CLint at 1 µM [4]: 170 µL/min/mg
solubility [13]: > 400 µM
microsomal CLint at 1 µM [5]: 45 µL/min/mg
IC50 [14]: 2.2 nM
IC50 [9]: 140 nM
IC50 [15]: 250 nM
efflux ratio at 1 h, 5 µM (MDR1): 1.02
solubility [16]: < 4 µM
Papp A→B at 1 h, 5 µM [17]: 25.9 ×10⁻⁶ cm/s

Cn1cc(-c2ccnc3[nH]ncc23)c(-c2ccc(F)cc2)n1
IC50 [12]: 36 nM
Vd [18]: 1.6 L/kg
microsomal CLint at 1 µM [4]: 42.2 µL/min/mg
solubility [13]: 112 µM (≈ 32.9 µg/mL)
microsomal CLint at 1 µM [5]: 9.4 µL/min/mg
AUC(0-inf) [19]: 2580 ng·h/mL
IC50 [14]: 1.4 nM
half-life [20]: 2 h
clearance [21]: 23 mL/min/kg
IC50 [9]: 250 nM
bioavailability [22]: 70%
IC50 [15]: 780 nM
efflux ratio at 1 h, 5 µM (MDR1): 3
solubility [16]: 8.7 µM (≈ 2.55 µg/mL)
Cmax [23]: 2400 nM
Papp A→B at 1 h, 5 µM [17]: 27.3 ×10⁻⁶ cm/s

Cn1cc(-c2ccnc3[nH]ccc23)c(-c2ccc(F)cn2)n1
inhibition [1]: 80%
inhibition [2]: 98%
inhibition [3]: 89%
Vd [18]: 0.6 L/kg
microsomal CLint at 1 µM [4]: 53.5 µL/min/mg
solubility [13]: > 400 µM
microsomal CLint at 1 µM [5]: 7.7 µL/min/mg
inhibition [6]: 74%
AUC(0-inf) [19]: 755 ng·h/mL
inhibition [7]: 60%
inhibition [8]: 81%
half-life [20]: 1.3 h
clearance [21]: 35 mL/min/kg
IC50 [9]: 930 nM
bioavailability [22]: 32%
IC50 [15]: > 1000 nM
inhibition [10]: 100%
solubility [16]: > 400 µM
inhibition [11]: 74%
Cmax [23]: 1600 nM
Papp A→B at 1 h, 5 µM [17]: 19.6 ×10⁻⁶ cm/s

Cn1cc(-c2cc(N)nc3[nH]ccc23)c(-c2ccc(F)cn2)n1
inhibition [1]: 0%
inhibition [2]: 8%
inhibition [3]: 8%
inhibition [6]: 0%
inhibition [7]: 39%
inhibition [8]: 3%
IC50 [9]: > 10000 nM
inhibition [10]: 18%
inhibition [11]: 29%

Cn1cc(-c2c(C#N)cnc3[nH]ccc23)c(-c2ccc(F)cn2)n1
inhibition [1]: 9%
inhibition [2]: 17%
inhibition [3]: 20%
inhibition [6]: 17%
inhibition [7]: 88%
inhibition [8]: 0%
IC50 [9]: 6200 nM
inhibition [10]: 40%
inhibition [11]: 11%

Fc1ccc(-c2nn3c(c2-c2ccnc(NC4CCOCC4)n2)COCC3)cc1
IC50 [12]: 45 nM

Cn1cc(-c2ccnc3[nH]c(C(F)(F)F)cc23)c(-c2ccc(F)cn2)n1
inhibition [1]: 54%
inhibition [2]: 69%
IC50 [12]: 250 nM
inhibition [3]: 68%
inhibition [6]: 83%
inhibition [7]: 85%
inhibition [8]: 63%
IC50 [9]: 200 nM
inhibition [10]: 87%
inhibition [11]: 75%

Fc1ccc(-c2nn3c(c2-c2ccnc4[nH]ccc24)COCC3)nc1
inhibition [1]: 5%
inhibition [2]: 59%
inhibition [3]: 6%
inhibition [6]: 0%
inhibition [7]: 46%
inhibition [8]: 10%
IC50 [9]: 4000 nM
inhibition [10]: 9%
inhibition [11]: 44%
